From article PMC5980259, “GI‐530159, a novel, selective, mechanosensitive two‐pore‐domain potassium (K2P) channel opener, reduces rat dorsal root ganglion neuron excitability” (British Journal of Pharmacology, 2017)

Assays:
Format in all cases: cell-based
hTREK1 = molecular target: T1, hTREK1 (Homo sapiens, UniProt O95069); test: Automated whole-cell patch clamp (Qpatch), CHO–TREK1 cells; parameters: expressed in transfected cells; details: 1 μM; stably transfected CHO cells
T1 sequence (O95069 1-426): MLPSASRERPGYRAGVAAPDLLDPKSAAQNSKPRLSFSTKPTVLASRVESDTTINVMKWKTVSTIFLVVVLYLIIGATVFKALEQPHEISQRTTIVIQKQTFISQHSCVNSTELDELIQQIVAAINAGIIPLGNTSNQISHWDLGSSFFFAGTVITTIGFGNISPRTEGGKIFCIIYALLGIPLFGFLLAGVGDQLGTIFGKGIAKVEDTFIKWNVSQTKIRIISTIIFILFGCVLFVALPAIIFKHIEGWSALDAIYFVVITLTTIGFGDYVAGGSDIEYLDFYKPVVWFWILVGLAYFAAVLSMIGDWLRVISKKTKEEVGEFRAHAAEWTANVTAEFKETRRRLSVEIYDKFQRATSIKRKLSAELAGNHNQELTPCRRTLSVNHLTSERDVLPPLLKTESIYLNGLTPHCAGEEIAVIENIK
Experimental: Automated patch‐clamp studies were performed with the Qpatch Sophion Bioscience A/S (Ballerup, Denmark) automated patch‐clamp platform. Sixteen‐well Qplates were loaded with CHO cells stably expression human recombinant TREK1 (CHO–TREK1 cells) in external buffer containing (in mM) 148 NaCl, 5 KCl, 1 CaCl2, 1 MgCl2, 10 HEPES and 10 glucose. Internal recording solution was (in mM) 100 K gluconate, 40 KCl, 1 MgCl2, 10 BAPTA, 10 HEPES and 1 MgATP.
Supplementary Information
Supplementary Figure S1: Activation of hTREK1 current by GI-530159 in automated patch […]
Figure S1: Activation of hTREK1 current by GI-530159 in automated patch recordings.
A) Human TREK1 current elicited by pulse protocol shown recorded on Qpatch 16 automated patch clamp platform after administration of 0.1% DMSO vehicle, 1 µM GI-530159 or after washout with 0.1% DMSO. B) Time course of TREK1 current amplitude recorded at 0 mV on Qpatch platform before during and after washout of 1 µM GI-530159.
(1 picture or pasted object on this page, not shown here)

Kv7.3 = Kv7.3 (Homo sapiens, UniProt O43525); test: Rb+ efflux assay, Kv7.3
THIK1 (K2P13.1) = molecular target: T2, THIK1 (K2P13.1) (Homo sapiens, UniProt Q9HB14); test: Whole-cell patch clamp, THIK1 channels; details: 1 μM; n = 7
T2 construct: expressed in transfected cells; host or cells: tsA-201, transient, pcDNA3.1 vector
Experimental: (§1) Recordings of hTREK1, hTREK1∆N, hTREK2, hTRAAK and […] currents from transiently transfected tsA‐201 cells were performed using methods as described in Veale and Mathie (2016). Briefly, the pcDNA3.1 vector was cloned with the gene of interest, and these vectors and a similar vector containing GFP were incorporated into the tsA201 cells (0.5 μg per well) using the calcium phosphate method. The cells were incubated for 6–12 h at 37°C in […] and 5% carbon dioxide. Cells were then washed using a PBS solution and used for experiments after 24 h.
(§2) Currents were recorded using whole‐cell patch‐clamp using an Axopatch 1D amplifier. Cells were placed in a recording chamber filled with an external medium composed of 145 mM, NaCl, 2.5 mM KCl, 3 mM MgCl2, 1 mM CaCl2 and 10 mM HEPES (pH to 7.4, using NaOH). The internal medium used in the glass pipette comprised 150 mM KCl, 3 mM MgCl2, 5 mM (or 0.1 mM) EGTA and 10 mM HEPES (pH to 7.4, using KOH). GI‐530159 was applied by bath perfusion. Currents were recorded and analysed using pCLAMP 10.2 software Microsoft Excel. The voltage protocol used for recording current through K2P channels was as previously described (Veale and Mathie, 2016). For analysis, we measured the current difference between the −80 and −40 mV steps.

hTRAAK = molecular target: T3, hTRAAK (Homo sapiens, UniProt Q9NYG8); test: Whole-cell patch clamp, transiently transfected tsA-201 cells, TRAAK
T3 construct: expressed in transfected cells; host or cells: tsA-201, transient, pcDNA3.1 vector
T3 sequence (Q9NYG8 1-393): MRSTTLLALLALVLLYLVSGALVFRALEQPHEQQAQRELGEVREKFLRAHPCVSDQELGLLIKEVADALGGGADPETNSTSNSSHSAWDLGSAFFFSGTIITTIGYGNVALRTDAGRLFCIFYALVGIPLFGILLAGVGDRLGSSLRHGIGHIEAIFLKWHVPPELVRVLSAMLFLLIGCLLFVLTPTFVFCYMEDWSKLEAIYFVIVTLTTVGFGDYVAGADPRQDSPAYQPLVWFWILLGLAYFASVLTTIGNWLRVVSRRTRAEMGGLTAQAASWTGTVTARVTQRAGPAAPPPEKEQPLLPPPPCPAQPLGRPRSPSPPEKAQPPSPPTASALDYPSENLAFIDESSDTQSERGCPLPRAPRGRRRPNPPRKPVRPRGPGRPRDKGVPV
Experimental: as §1, §2

hTREK1∆N = molecular target: T4, hTREK1∆N (Homo sapiens, UniProt O95069); test: Whole-cell patch clamp, transiently transfected tsA-201 cells, TREK1ΔN; details: 1 μM, n = 5
T4 construct: expressed in transfected cells; host or cells: tsA-201, transient, pcDNA3.1 vector
Experimental: as §1, §2

T2 sequence (Q9HB14 whole entry): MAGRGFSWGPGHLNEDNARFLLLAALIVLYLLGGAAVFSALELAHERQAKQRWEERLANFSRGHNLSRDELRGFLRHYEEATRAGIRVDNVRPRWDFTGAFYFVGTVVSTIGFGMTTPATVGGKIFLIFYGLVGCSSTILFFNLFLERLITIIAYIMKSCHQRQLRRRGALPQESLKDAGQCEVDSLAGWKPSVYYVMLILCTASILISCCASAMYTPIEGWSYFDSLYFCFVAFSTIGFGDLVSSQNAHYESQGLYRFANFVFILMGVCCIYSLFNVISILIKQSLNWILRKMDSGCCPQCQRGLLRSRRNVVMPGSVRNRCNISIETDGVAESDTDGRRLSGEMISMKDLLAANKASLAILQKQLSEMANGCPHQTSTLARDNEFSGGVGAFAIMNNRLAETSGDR

Nc1ccc(Oc2ccc(C(c3ccc(Oc4ccc(N)cc4)cc3)(C(F)(F)F)C(F)(F)F)cc2)cc1 [GI‐530159, 4,4′‐(hexafluoroisopropylidene)bis(p‐phenyleneoxy)dianiline]
effect on hTREK1 current, Qpatch (hTREK1): effective at reversibly enhancing current | activator effect on Kv7.3 (Kv7.3): no activator effects | effect on THIK1 (K2P13.1) current (THIK1 (K2P13.1)): 0 ± 3% | enhancement of TRAAK current (hTRAAK; 1 μM, tsA-201, n = 7): 2 ± 10% | effect on TRAAK channels (hTRAAK; 10 μM): no detectable effect | enhancement of TREK1ΔN current (hTREK1∆N): 377 ± 57%
